The supplement of paper PMC10307832

Legend:
Assay in all cases: relative viability (nuclei count vs DMSO), 5 days (fraction); higher = more cells survive
[1] = compound: CC1=CN=C(N=C1C2=CNC(=C2)C(=O)N[C@H](CO)C3=CC(=CC=C3)Cl)NC4=C(C=C(C=C4)F)Cl [VX-11e] + C[C@]1(O)C[C@@H](c2nc(-c3ccc4ccc(-c5ccccc5)nc4c3)c3c(N)nccn32)C1 [Linsitinib] (partner 1 µM)
How it was run: (§1)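 The day after seeding in 1536-well plates, lung cancer cell lines were treated by pin tool with a single drug, or with a fixed anchor-drug dose together with five library-drug doses (not always all listed) in √10 steps. After 5 days, a combined fix-and-stain solution (final 0.05% Triton X-100, 1% formaldehyde, 1 ug/ml Hoechst) was added. Nuclei counted on 4× images gave relative viability as treated counts over vehicle counts, reported as the median of duplicate plates.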

[2] = compound: CC1=CN=C(N=C1C2=CNC(=C2)C(=O)N[C@H](CO)C3=CC(=CC=C3)Cl)NC4=C(C=C(C=C4)F)Cl [VX-11e] + O=C(CCCCCCC(=O)Nc1ccccc1)NO [Vorinostat] (partner 1 µM)
How it was run: as §1

[3] = compound: CC1=CN=C(N=C1C2=CNC(=C2)C(=O)N[C@H](CO)C3=CC(=CC=C3)Cl)NC4=C(C=C(C=C4)F)Cl [VX-11e] + Cc1nc(NC(=O)N2CCC[C@H]2C(N)=O)sc1-c1ccnc(C(C)(C)C(F)(F)F)c1 [Alpelisib] (partner 2 µM)
How it was run: as §1

[4] = compound: CC1=CN=C(N=C1C2=CNC(=C2)C(=O)N[C@H](CO)C3=CC(=CC=C3)Cl)NC4=C(C=C(C=C4)F)Cl [VX-11e] + CC1(C)CCC(c2ccc(Cl)cc2)=C(CN2CCN(c3ccc(C(=O)NS(=O)(=O)c4ccc(N[C@H](CCN5CCOCC5)CSc5ccccc5)c(S(=O)(=O)C(F)(F)F)c4)cc3)CC2)C1 [Navitoclax] (partner 0.5 µM)
How it was run: as §1

Cell Line	relative viability ([1]; first compound 0.04 µM)	relative viability ([1]; first compound 0.1265 µM)	relative viability ([1]; first compound 0.4 µM)	relative viability ([1]; first compound 1.265 µM)	relative viability ([1]; first compound 4 µM)	relative viability ([2]; first compound 0.04 µM)	relative viability ([2]; first compound 0.1265 µM)	relative viability ([2]; first compound 0.4 µM)	relative viability ([2]; first compound 1.265 µM)	relative viability ([2]; first compound 4 µM)	relative viability ([3]; first compound 0.04 µM)	relative viability ([3]; first compound 0.1265 µM)	relative viability ([3]; first compound 0.4 µM)	relative viability ([3]; first compound 1.265 µM)	relative viability ([3]; first compound 4 µM)	relative viability ([4]; first compound 0.04 µM)	relative viability ([4]; first compound 0.1265 µM)	relative viability ([4]; first compound 0.4 µM)	relative viability ([4]; first compound 1.265 µM)	relative viability ([4]; first compound 4 µM)
NCI-H661	0.598	0.617	0.568	0.501	0.394	0.784	0.798	0.718	0.794	0.747	0.403	0.831	0.606	0.586	0.511					
NCI-H2170						0.835	0.75	0.462	0.67	0.778	0.76	0.71	0.758	0.719	0.71	0.576	0.528	0.496	0.583	0.404
NCI-H1650						0.561	0.549	0.409	0.529	0.458						1.21	1.07	1.08	0.856	0.374
NCI-H522						0.994	0.939	0.736	0.713	0.751										
A549	0.548	0.485	0.448	0.31	0.169						0.737	0.622	0.451	0.313	0.0519	1.22	1.11	0.984	0.257	0.111
LCLC-103H	1.24	0.985	0.954	0.857	0.836	0.807	0.68	0.673	0.46	0.66	1.06	0.905	0.861	0.828	0.819					
NCI-H1299	1.08	0.944	0.942	0.682	0.36						1.11	1.03	1.05	1.11	0.708	1.02	1.01	1.02	0.976	0.692
Calu-6	1.08	0.926	0.935	0.179	0.115						1.12	0.98	0.94	0.456	0.125	0.994	0.786	0.737	0.219	0.109
NCI-H1792	0.706	0.488	0.681	0.484	0.137						0.799	0.631	0.649	0.628	0.202	0.614	0.639	0.672	0.646	0.588
NCI-H1563	1.21	1.2	1.22	1.11	1.06						0.86	0.84	0.897	0.917	0.874					
ChaGo-K-1						0.754	0.699	0.717	0.656	0.636						0.616		1.07	0.781	0.787
